Assay results published in patent publication US6664249B1, “Bicyclic vasopressin agonists” (Ferring BV, priority 1999, dated 2003).

System: Brattleboro rat
Assay: urine output in Brattleboro rats (model of vasopressin deficiency)
Type: in vivo
Conditions: 1 mg/kg p.o. in methylcellulose, vs control animals
Method: The Brattleboro rat is a recognised model for vasopressin deficiency (for a review see F D Grant, “Genetic models of vasopressin deficiency”, Exp. Physiol. 85, 203S-209S, 2000). […] Compounds of the invention were administered to Brattleboro rats (0.1-10 mg/kg p.o. in methylcellulose. Urine was collected hourly and volumes were compared with control animals. Animals had free access to food and water throughout the experiment. Representative results are given in the Table. Results for Desmopressin are given for comparison.

| SMILES | % inhibition of urine output (at 1 hour) |
| --- | --- |
| CCOC(=O)CNC(=O)NCc1ccc(C(=O)N2CCCCc3ccccc32)cc1C [Example 5, 1-(4-[N-(2-Ethoxy-2-oxoethylcarbamoyl)aminomethyl]-3-methylbenzoyl)-2,3,4,5-tetrahydro-1H-1-benzazepine] | 74% |
| Cc1cc(C(=O)N2CCCCc3ccccc32)ccc1CNC(=O)NCC(=O)O [Example 6, 1-(4-[N-(Carboxymethylcarbamoyl)aminomethyl]-3-methylbenzoyl)-2,3,4,5-tetrahydro-1H-1-benzazepine] | 38% |
| Cc1cc(C(=O)N2CCCCc3ccccc32)ccc1CNC(=O)NCC(=O)N(C)C [Example 8, 1-(4-[N-(2-Dimethylamino-2-oxoethylcarbamoyl)aminomethyl]-3-methylbenzoyl)-2,3,4,5-tetrahydro-1H-1-benzazepine] | 45-82% |
| Cc1cc(C(=O)N2CCCCc3ccccc32)ccc1CNC(=O)NCC(=O)N1CCCCC1 [Example 25, 1-(3-methyl-4-[N-(2-(1-piperidino)-2-oxoethylcarbamoyl)aminomethyl]benzoyl)-2,3,4,5-tetrahydro-1H-1-benzazepine] | 58% |
